Reference: patent publication US9127027B2, “Epoxyeicosatrienoic acid analogs and methods of making and using the same” (The Medical College of Wisconsin, Inc., priority 2011, dated 2015)
Where two headings read alike, the source gives them in different places.

Legend:
bovine coronary artery = test: Vasorelaxant activity in bovine coronary artery rings precontracted with U-46619; assay type: cell-based; conditions: 10 μM
Protocol: Vasorelaxant activity was measured in bovine coronary artery. Bovine hearts were obtained and the left anterior descending coronary artery was dissected and cleaned of connective tissue. Vessels of 1 mm diameter were cut into rings of 3 mm width as previously described (3, 27, 39). […] The vessels were suspended from a pair of stainless steel hooks in a 6-ml water-jacketed organ chamber. […] One hook was anchored to a steel rod and the other hook to a force transducer (model FT-03C; Grass Instruments, West Warwick, R.I.). Tension of the vessel was measured by an ETH-400 bridge amplifier, and the data were acquired with a MacLab 8e analog-to-digital converter and MacLab software version 3.5.6 (AD Instruments, Milford, Mass.) and stored on a Macintosh computer for subsequent data analysis.
Basal tension was set at the length-tension maximum of 3.5 g and equilibrated for 1.5 h. KCl (40 mM) was added to the chamber until reproducible maximal contractions were maintained. […] Cumulative additions of compounds were added to the chamber. Between concentration-response curves, the chambers were rinsed with fresh Krebs buffer, 40 mM KCl was administered to determine the maximum contraction, and the vessels were rinsed. Consecutive concentration-response curves were performed with 14,15-EET followed by a concentration-response curve to a compound. The experiment was always repeated with the order of the agonists reversed. […] The relaxation was plotted versus compound concentration and the EC50 determined utilizing statistical software.

[1] = tested on: Spontaneously Hypertensive Rats (SHR); test: Telemetry blood pressure and heart rate in spontaneously hypertensive rats; assay type: in vivo, rat
Source text: (§1) Telemetry Blood Pressure Measurement. To accurately detect changes in blood pressure and heart rate, telemetry transmitters (Data Sciences Inc., St. Paul, Minn.) were implanted in rats one week prior to the experimental period according to manufacturer's specifications while under pentobarbital anesthesia. In brief, an incision was made to expose the femoral artery that was occluded to allow insertion of the transmitter catheter. The catheter was secured in place with tissue glue and the transmitter body was sutured in place and the incision line was closed. Rats were allowed to recover from surgery and were returned to individual housing. A baseline arterial pressure was recorded for prior to the experimental period. Mean arterial pressure was continuously recorded throughout the experimental period.
Telemetry transmitters were implanted into male SHR as described. After the surgical recovery period, baseline mean arterial pressure was recorded. In this series of experiments, EET analogs were administered by osmotic pump (2 mg/d, i.p.) and blood pressure was continuously monitored.

[2] = tested on: angiotensin II induced hypertensive rats; test: Angiotensin II hypertension: telemetry blood pressure, heart rate, sodium and protein excretion; assay type: in vivo, rat; conditions: Ang II hypertension
Source text: as §1
Telemetry transmitters were implanted into male Sprague-Dawley rats (225-275 g) as described. After recording basal blood pressure, osmotic pumps were implanted (s.c.) to deliver angiotensin at a dose of 60 ng/min. EET analogs were administered by an osmotic pump (2 mg/d, i.p.) and blood pressure was continuously monitored.
Animals were placed in a metabolic cage and urine was collected in a conical tube. Samples were stored at −80° C. until assayed. Urinary protein excretion was assessed as an index for renal injury. Protein was determined by the Bradford colorimetric method and creatinine was determined by the picric acid colorimetric method.

[3] = tested on: Wistar-Kyoto (WKY) rats administered cisplatin; test: Cisplatin-induced nephrotoxicity in rats pretreated with EET analogs; assay type: in vivo, rat; conditions: for BUN: day 5 after cisplatin 7 mg/kg i.p., vehicle 241±51; for urinary NAG / plasma creatinine (PCr) / KIM-1 urinary excretion: day 5 after cisplatin; for urinary NAG: vehicle 3.0±0.6; for plasma creatinine (PCr): vehicle 3.1±0.2; for KIM-1 urinary excretion: vehicle 296±94; for cisplatin-induced proteinuria: vehicle 53±5; for reductions in renal mRNA expressions of inflammatory markers (TNF-α, IL-6, IL-1β) / reduction in elevated renal expressions of GRP78 and caspase 12 mRNAs: cisplatin-administered rats; for reduction in elevated renal expressions of GRP78 and caspase 12 mRNAs: vs vehicle treatment; for decrease in kidney expression of NOX1 and gp91phox mRNAs / reduction in urinary excretion of NAG and KIM-1 / reduction of cisplatin-induced proteinuria / reductions in elevated serum creatinine and BUN: vs vehicle-treated cisplatin rats
Source text: Experiments were approved and carried out according to the guidelines of the Institutional Animal Care and Use Committee, Medical College of Wisconsin, Milwaukee, USA. Male Wistar-Kyoto (WKY) rats weighing 180-200 g (Charles River, Mass., USA). All animals were kept in a temperature-controlled environment with a 12-h light/dark cycle and were allowed free access to food and water at all times. An acclimatization period of 6 days was allowed for the rats before experimentation. The rats were assigned into four groups. Group 1 (WKY, n=5-7): Rats received drinking water ad libitum for seven days and on day 7 DMSO (Sigma Aldrich, St. Louis, Mo., USA) was administered (300-500 μl i.p). […] Group 2 (CP+Vehicle, n=5-7): Rats were pretreated with vehicle (0.05% ethanol and 0.1% PEG-400 v/v) in drinking water for seven days and then on day 7 CP was administered (7 mg/kg i.p.) followed by another five days treatment with vehicle. Group 3 (CP+EET-A, n=5-7): These rats are pretreated with the EET analog EET-A (10 mg/kg/day p.o.) for seven days in drinking water and then on day 7 administered CP as a single injection (7 mg/kg i.p.) followed by another five days treatment with EET-A. Group 4 (CP+EET-B, n=5-7): Rats of this group are pretreated with another EET analog EET-B (10 mg/kg/day) for 7 days in drinking water and then on day 7 CP was administered as a single injection (7 mg/kg i.p.) followed by another five days treatment with EET-B. Rats of groups 2, 3 and 4 had free access to vehicle, EET-A and -B in drinking water, respectively. One day before the rats were sacrificed, urine of each rat was collected over a 24-h period, and the volume was measured. Five days after CP or DMSO administration, rats were anesthetized for blood sample collection followed by euthanasia and tissue collection. Urine and plasma samples were kept frozen at −80° C. until analyzed. The kidneys were removed, washed with physiological saline and stored at −80° C. until used for RT-PCR analysis, thiobarbituric acid reactive substance (TBARS) measurement and caspase 3 activity assay. A part of the kidney also preserved in 10% buffered formalin for histological examination.
The levels of blood urea nitrogen (BUN) (BioAssay Systems, Hayward, Calif., USA) and serum creatinine (Cayman Chemical Company, Ann Arbor, Mich., USA) were measured spectrophotometrically using commercial kits. Urinary content of creatinine and protein were measured using commercial kits (Cayman Chemical Company, Ann Arbor, Mich., USA), and the activity of urinary N-acetyl-b-glucosaminidase (NAG) in the urine was measured by a kit from Diazyme (Diazyme Laboratories, Poway, Calif., USA). While urine content of kidney injury molecule-1 (KIM-1) was measured using ELISA (R&D Systems, Inc. Minneapolis, Minn., USA).
Malondialdehyde (MDA) is a thiobarbituric acid reactive substance (TBARS) that is formed as an end-product of lipid peroxidation and serves as an important index of oxidative stress. To determine the kidney MDA level, the rat kidney was homogenized with buffer containing 1.5% potassium chloride to obtain a 1:10 (w/v) whole kidney homogenate. Using a commercially available kit (Cayman Chemical Company, Ann Arbor, Mich., USA), MDA was measured spectrophotometrically after reaction with thiobarbituric acid. […]
Real-Time analysis was carried out to assess the expression of oxidative (gp91phox, NOX1, SOD1, SOD2, SOD3), inflammatory (TNF-α, IL-6, IL-1β), apoptotic (Bax, Bak, Bcl-2) and endoplasmic reticulum stress (GRP78, caspase 12) related genes in the kidney. Total RNA was isolated from kidney homogenate using TRIzol LS reagents (Invitrogen Life Technologies, Carlsbad, Calif., USA) according to the manufacturer's instructions. The isolated RNA was treated with RNase-free DNase (Invitrogen, Carlsbad, Calif., USA) to remove traces of genomic DNA contamination. […]

NCCIT cells = test: Cell viability (alamar blue), cisplatin with concurrent EET-A; assay type: cell-based, human
Protocol: In this study, HEK293, U87MG, Hela cell-lines were obtained from the ATCC (Manassas, Va., USA) (HEK293, U87MG, Hela), and NCCIT was collected from Department of Pediatrics, UT Southwestern Medical Center at Dallas, Tex., USA. All cell lines were maintained in DMEM or RPIM with 10% fetal bovine serum and penicillin/streptomycin purchased from Life Technologies (Grand Island, N.Y., USA). Cisplatin was purchased from either Sigma (St. Louis, Mo., USA) or CalBiochem/EMD Biosciences (Billerica, Mass., USA). Cells were seeded in 96-well plates at 500 to 4,000 cells per well depends on cell type. […] Cell viability was measured by alamar blue assay using resazurin (Sigma Aldrich) according to the manufacturer's guidelines. Viability results were measured by fluorescence/absorbance in a 96-well plate reader from BMG Labtech (Cary, N.C., USA) and the IC50 was calculated by GraphPad Prism® software (GraphPad Software Inc, La Jolla, Calif., USA).

| Structure (SMILES) | BUN ([3]; 10 mg/kg/d p.o.) [mg/dL] | urinary NAG ([3]; 10 mg/kg/d p.o.) [U/d] | plasma creatinine (PCr) ([3]; 10 mg/kg/d p.o.) [mg/dL] | KIM-1 urinary excretion ([3]; 10 mg/kg/d p.o.) [ng/day] | cisplatin-induced proteinuria ([3]; 10 mg/kg/d p.o.) [mg/day] | reductions in renal mRNA expressions of inflammatory markers (TNF-α, IL-6, IL-1β) [3] | reduction in elevated renal expressions of GRP78 and caspase 12 mRNAs [3] | decrease in kidney expression of NOX1 and gp91phox mRNAs [3] | reduction in urinary excretion of NAG and KIM-1 [3] | reduction of cisplatin-induced proteinuria [3] [%] | reductions in elevated serum creatinine and BUN [3] | other results |
| --- | --- | --- | --- | --- | --- | --- | --- | --- | --- | --- | --- | --- |
| CCCCCCC(=O)N(CCCCCOc1cccc2sc(NC(C)=O)nc12)C(C)C [Compound 30, N-(5-(2-Acetamidobenzo[d]thiazol-4-yloxy)pentyl)-N-isopropylheptanamide] | – | – | – | – | – | – | – | – | – | – | – | Vascular Relax. % (10 μM) (bovine coronary artery; 100% relaxation = basal pre-U-46619 tension): 96%; Vascular relaxation % relaxation (10 μM) (bovine coronary artery; Table 2): 96%; blood pressure after two weeks of treatment ([1]; 2 mg/d i.p. osmotic pump, vehicle 141±3.0): 129±2.0 mmHg; heart rate ([1]; 2 mg/d i.p., vehicle 331±17.0): 318±24.0 BPM; decrease in blood pressure compared to vehicle ([1]; two weeks treatment): 12 mmHg; blood pressure at end of two-week treatment ([2]; 2 mg/d i.p., vehicle 150±3.2): 107±2.0 mmHg; sodium excretion (natriuresis) ([2]; two weeks, vehicle 1.9±0.7): 2.7 ± 0.3 mmol/day; heart rate ([2]; two weeks, vehicle 396±25.0): 385±16.0 BPM |
| CCCCCNC(=O)NCCCC/C=C\CCCCCCC(=O)NC(CC(=O)[O-])C(=O)[O-].[Na+].[Na+] [EET-A, Sodium (S)-2-(13-(3-pentylureido)tridec-8(Z)-enamido)succinate] | 108 ± 30 | 0.5±0.1 | 2.0 ± 0.2 | 85 ± 29 | 33 ± 8 | 40-60% | 2-4 fold | 2-3 folds | 30-50% | ≥ 40 | 30-50% | kidney TBARS formation ([3]; 10 mg/kg/d p.o., after cisplatin, vehicle 16±2): 7 ± 1 µmol/g |
| CCCCCCC(=O)N(CCCCCOc1cccc2sc(NC(=O)C(C)(C)C)nc12)C(C)C [EET-B, N-Isopropyl-N-(5-(2-pivalamidobenzo[d]thiazol-4-yloxy)pentyl)heptanamide] | 120 ± 33 | 0.6±0.2 | 1.4 ± 0.2 | 57 ± 13 | 32 ± 3 | 40-60% | 2-4 fold | 2-3 folds | 30-50% | ≥ 40 | 30-50% | – |
| N.N.[Cl][Pt][Cl] [cisplatin] | – | – | – | – | – | – | – | – | – | – | – | IC50 (NCCIT cells; read-out: IC50 for cisplatin, with 0 ng/ml EET-A): 2600 nM; IC50 (NCCIT cells; read-out: IC50 for cisplatin, with 1 ng/ml EET-A): 2550 nM; IC50 (NCCIT cells; read-out: IC50 for cisplatin, with 10 ng/ml EET-A): 2440 nM |
